# Literature values, collected in patent publication US20140242195A1, “AUTOMOTIVE SURFACE CONDITIONING SYSTEM” (American Covers, Inc., priority 2013, published 2014).
# Details: component of the composition
row,SMILES,Vapor Pressure (mmHg)
1,"CCOCCOCCO [CARBITOL, diethylene glycol monoethyl ether]",0.07 mmHg
2,OCC(O)CO [Glycerin],0.003 mmHg
